IC50 data for 25 molecules are collected here from US9884063B2, “Amido-substituted azole compounds” (Bayer Pharma Aktiengesellschaft, priority 2014, dated 2018).

For the assay, the target named is T1, TNKS1 (Homo sapiens, UniProt O95271).
T1 sequence (O95271 1-1327): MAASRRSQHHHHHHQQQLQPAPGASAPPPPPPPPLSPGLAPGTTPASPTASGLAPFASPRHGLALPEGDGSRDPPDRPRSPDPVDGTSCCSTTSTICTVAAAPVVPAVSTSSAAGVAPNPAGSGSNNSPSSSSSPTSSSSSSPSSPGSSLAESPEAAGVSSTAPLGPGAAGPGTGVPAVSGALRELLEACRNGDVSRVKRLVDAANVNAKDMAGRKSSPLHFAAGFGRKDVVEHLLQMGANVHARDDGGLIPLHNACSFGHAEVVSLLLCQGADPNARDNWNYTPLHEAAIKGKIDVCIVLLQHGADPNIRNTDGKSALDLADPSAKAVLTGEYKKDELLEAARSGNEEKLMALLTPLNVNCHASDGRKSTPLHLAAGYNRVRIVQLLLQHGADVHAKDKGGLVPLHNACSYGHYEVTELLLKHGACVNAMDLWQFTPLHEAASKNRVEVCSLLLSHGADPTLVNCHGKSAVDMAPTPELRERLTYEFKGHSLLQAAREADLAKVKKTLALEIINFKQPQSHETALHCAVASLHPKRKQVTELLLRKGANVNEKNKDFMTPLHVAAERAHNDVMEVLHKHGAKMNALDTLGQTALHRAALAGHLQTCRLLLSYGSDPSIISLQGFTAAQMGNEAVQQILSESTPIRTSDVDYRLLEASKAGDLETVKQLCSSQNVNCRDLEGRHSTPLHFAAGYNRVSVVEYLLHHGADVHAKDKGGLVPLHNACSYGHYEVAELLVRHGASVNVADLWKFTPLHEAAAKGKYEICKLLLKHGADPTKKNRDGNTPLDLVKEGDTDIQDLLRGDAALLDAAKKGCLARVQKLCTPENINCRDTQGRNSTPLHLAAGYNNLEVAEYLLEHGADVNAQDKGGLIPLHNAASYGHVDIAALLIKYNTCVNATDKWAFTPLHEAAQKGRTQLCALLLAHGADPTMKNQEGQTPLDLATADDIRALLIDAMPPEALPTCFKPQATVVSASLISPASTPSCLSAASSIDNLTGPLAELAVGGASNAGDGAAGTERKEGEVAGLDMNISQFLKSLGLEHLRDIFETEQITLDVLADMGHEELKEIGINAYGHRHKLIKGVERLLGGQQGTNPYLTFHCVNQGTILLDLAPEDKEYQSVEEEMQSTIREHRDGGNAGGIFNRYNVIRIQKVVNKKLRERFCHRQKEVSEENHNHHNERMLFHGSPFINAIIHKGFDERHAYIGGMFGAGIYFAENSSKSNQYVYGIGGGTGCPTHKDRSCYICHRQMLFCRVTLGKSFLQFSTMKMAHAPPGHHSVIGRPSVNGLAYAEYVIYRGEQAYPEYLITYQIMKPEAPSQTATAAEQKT
As to the kind of experiment: Modified TNKS1 Assay 3 (BPS kit #80573, biotin-NAD+, 96 well). The class given is biochemical. The note with it: human TNKS1, BPS kit #80573, 96 well. In short, it runs like this: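 Chemiluminescent assay of TNKS1-catalysed ribosylation of a protein substrate with biotin-labelled NAD+, detected via streptavidin-HRP; run per kit protocol. Inhibition lowers the signal, and IC50 is the compound concentration halving the normalised readout.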
The term IC50 denotes the concentration that gives 50% inhibition. Read a low IC50 as inhibition by little substance. Molecule `CC(CN1CCOCC1)NC(=O)c1[nH]cnc1C(=O)Nc1ccc(NC(=O)c2ccc(F)cc2Cl)cc1` (single isomer, unassigned; enantiomer 1) [Example 269, N^4-{4-[(2-chloro-4-fluorobenzoyl)amino]phenyl}-N^5-[1-(morpholin-4-yl)propan-2-yl]-1H-imidazole-4,5-dicarboxamide (enantiomer 1)] yielded an IC50 of 80 nM.

In turn, `CC(CN1CCOCC1)NC(=O)c1[nH]cnc1C(=O)Nc1ccc(NC(=O)c2ccc(F)cc2)cc1` (single isomer, unassigned; enantiomer 1) [Example 295, N^4-{4-[(4-fluorobenzoyl)amino]phenyl}-N^5-[1-(morpholin-4-yl)propan-2-yl]-1H-imidazole-4,5-dicarboxamide (enantiomer 1)] yielded an IC50 greater than 500 nM.

As for `CC(CN1CCOCC1)NC(=O)c1[nH]cnc1C(=O)Nc1ccc(NC(=O)c2ccc(F)cc2)cc1` (single isomer, unassigned; enantiomer 2) [Example 296, N^4-{4-[(4-fluorobenzoyl)amino]phenyl}-N^5-[1-(morpholin-4-yl)propan-2-yl]-1H-imidazole-4,5-dicarboxamide (enantiomer 2)], the IC50 was greater than 500 nM.

For `COC(=O)c1nc[nH]c1C(=O)Nc1ccc(NC(=O)c2ccc(F)cc2Cl)cc1` [Example 13, Methyl 5-({4-[(2-chloro-4-fluorobenzoyl)amino]phenyl}carbamoyl)-1H-imidazole-4-carboxylate], the IC50 turned out to be 60 nM.

In turn, `CN(C)CCNC(=O)c1ncoc1C(=O)Nc1ccc(NC(=O)c2ccc(F)cc2Cl)cc1` [Example 31, N^5-{4-[(2-chloro-4-fluorobenzoyl)amino]phenyl}-N^4-[2-(dimethylamino)ethyl]-1,3-oxazole-4,5-dicarboxamide] came in with an IC50 of 130 nM. This IC50 lies about 2.2-fold higher than the previous one.

As to `O=C(Nc1ccc(NC(=O)c2[nH]cnc2C(=O)NCCN2CCCCC2)cc1)c1ccc(F)cc1` [Example 33, N^4-{4-[(4-fluorobenzoyl)amino]phenyl}-N^5-[2-(piperidin-1-yl)ethyl]-1H-imidazole-4,5-dicarboxamide], the IC50 was greater than 500 nM.

With `CNC(=O)c1nc[nH]c1C(=O)Nc1ccc(NC(=O)c2c(C)cc(C)cc2C)cc1` [Example 35, N^5-{4-[(mesitylcarbonyl)amino]phenyl}-N^4-methyl-1H-imidazole-4,5-dicarboxamide], the IC50 is greater than 500 nM.

Molecule `CNC(=O)c1nc[nH]c1C(=O)Nc1ccc(NC(=O)c2ccccc2Br)cc1` [Example 37, N^5-{4-[(2-bromobenzoyl)amino]phenyl}-N^4-methyl-1H-imidazole-4,5-dicarboxamide] came in with an IC50 of 330 nM.

In turn, `O=C(Nc1ccc(NC(=O)c2[nH]cnc2C(=O)N2CC(F)C2)cc1)c1ccc(F)cc1Cl` [Example 41, N-{4-[(2-chloro-4-fluorobenzoyl)amino]phenyl}-4-[(3-fluoroazetidin-1-yl)carbonyl]-1H-imidazole-5-carboxamide] came in with an IC50 greater than 500 nM.

`O=C(Nc1ccc(NC(=O)c2[nH]cnc2C(=O)NC2CC2)cc1)c1ccc(F)cc1Cl` [Example 45, N^5-{4-[(2-chloro-4-fluorobenzoyl)amino]phenyl}-N^4-cyclopropyl-1H-imidazole-4,5-dicarboxamide] registered an IC50 of 70 nM.

In the case of `O=C(Nc1ccc(NC(=O)c2[nH]cnc2C(=O)N2CC(F)C2)cc1)c1cc(F)c(F)cc1Cl` [Example 47, N-{4-[(2-chloro-4,5-difluorobenzoyl)amino]phenyl}-4-[(3-fluoroazetidin-1-yl)carbonyl]-1H-imidazole-5-carboxamide], the IC50 was greater than 500 nM.

In the case of `O=C(Nc1ccc(NC(=O)c2[nH]cnc2C(=O)NCCC2CC2)cc1)c1cc(F)c(F)cc1Cl` [Example 49, N^5-{4-[(2-chloro-4,5-difluorobenzoyl)amino]phenyl}-N^4-(2-cyclopropylethyl)-1H-imidazole-4,5-dicarboxamide], the IC50 was greater than 500 nM.

`CN(C)CCNC(=O)c1nc[nH]c1C(=O)Nc1ccc(NC(=O)c2ccc(S(C)(=O)=O)cc2Cl)cc1` [Example 54, N^5-(4-{[2-chloro-4-(methylsulfonyl)benzoyl]amino}phenyl)-N^4-[2-(dimethylamino)ethyl]-1H-imidazole-4,5-dicarboxamide]: the IC50 was determined as 20 nM. That is a double-digit nanomolar value.

For the molecule `O=C(Nc1ccc(NC(=O)c2[nH]cnc2C(=O)NCCN2CCCCC2)cc1)c1cc(OC(F)(F)F)ccc1Br` [Example 63, N^5-(4-{[2-bromo-5-(trifluoromethoxy)benzoyl]amino}phenyl)-N^4-[2-(piperidin-1-yl)ethyl]-1H-imidazole-4,5-dicarboxamide], the IC50 amounted to 70 nM.

The molecule `CNC(=O)c1[nH]c(C)nc1C(=O)Nc1ccc(NC(=O)c2ccc(F)cc2Cl)cc1` [Example 65, N^4-{4-[(2-chloro-4-fluorobenzoyl)amino]phenyl}-N^5,2-dimethyl-1H-imidazole-4,5-dicarboxamide] returned an IC50 of 160 nM.

On to `CCc1nc(C(=O)Nc2ccc(NC(=O)c3ccc(F)cc3Cl)cc2)c(C(=O)NCCN(C)C)[nH]1` [Example 69, N^4-{4-[(2-chloro-4-fluorobenzoyl)amino]phenyl}-N^5-[2-(dimethylamino)ethyl]-2-ethyl-1H-imidazole-4,5-dicarboxamide], for which 50 nM corresponded to half-maximal inhibition (IC50).

`CCc1nc(C(=O)Nc2ccc(NC(=O)c3ccc(F)cc3Cl)cc2)c(C(=O)NCCN2CCCCC2)[nH]1` [Example 70, N^4-{4-[(2-chloro-4-fluorobenzoyl)amino]phenyl}-2-ethyl-N^5-[2-(piperidin-1-yl)ethyl]-1H-imidazole-4,5-dicarboxamide] displayed an IC50 of 20 nM.

`O=C(Nc1ccc(NC(=O)c2[nH]cnc2C(=O)NCCN2CCCCC2)cc1F)c1ccc(F)cc1Cl` [Example 74, N^5-{4-[(2-chloro-4-fluorobenzoyl)amino]-3-fluorophenyl}-N^4-[2-(piperidin-1-yl)ethyl]-1H-imidazole-4,5-dicarboxamide] registered an IC50 of 2 nM. This IC50 is about 10-fold lower than that of the molecule before.

`O=C(Nc1ccc(NC(=O)c2[nH]cnc2C(=O)NCCN2CCCCC2)cc1F)c1ccccc1Cl` [Example 82, N^5-{4-[(2-chlorobenzoyl)amino]-3-fluorophenyl}-N^4-[2-(piperidin-1-yl)ethyl]-1H-imidazole-4,5-dicarboxamide] came in with an IC50 of 10 nM. Against the preceding molecule, the IC50 is about 5-fold higher.

In turn, `COc1cc(NC(=O)c2[nH]cnc2C(=O)NCCN2CCCCC2)ccc1NC(=O)c1ccc(F)cc1Cl` [Example 97, N^5-{4-[(2-chloro-4-fluorobenzoyl)amino]-3-methoxyphenyl}-N^4-[2-(piperidin-1-yl)ethyl]-1H-imidazole-4,5-dicarboxamide] had an IC50 of 90 nM.

`CNC(=O)c1nc[nH]c1C(=O)Nc1ccc(NC(=O)c2ccccc2Cl)c(OC)c1` [Example 99, N^5-{4-[(2-chlorobenzoyl)amino]-3-methoxyphenyl}-N^4-methyl-1H-imidazole-4,5-dicarboxamide]: the IC50 was greater than 500 nM.

`COc1cc(NC(=O)c2[nH]cnc2C(=O)NCCN2CCCCC2)ccc1NC(=O)c1ccccc1Cl` [Example 101, N^5-{4-[(2-chlorobenzoyl)amino]-3-methoxyphenyl}-N^4-[2-(piperidin-1-yl)ethyl]-1H-imidazole-4,5-dicarboxamide]: half-maximal inhibition (IC50) was put at 40 nM.

For `CC(C)c1nc(C(=O)Nc2ccc(NC(=O)c3ccc(F)cc3Cl)cc2)c(C(=O)NCCN2CCCCC2)[nH]1` [Example 108, N^4-{4-[(2-chloro-4-fluorobenzoyl)amino]phenyl}-2-isopropyl-N^5-[2-(piperidin-1-yl)ethyl]-1H-imidazole-4,5-dicarboxamide], half-maximal inhibition (IC50) required 460 nM.

The molecule `NC(=O)c1nc[nH]c1C(=O)Nc1ccc(NC(=O)c2ccccc2Cl)cc1` [Example 120, N^5-{4-[(2-chlorobenzoyl)amino]phenyl}-1H-imidazole-4,5-dicarboxamide] displayed an IC50 greater than 500 nM.

As for `O=C(Nc1ccc(NC(=O)c2nc[nH]c2C(=O)NCC2CC2)cc1)c1ccc(F)cc1Cl` [Example 128, N^4-{4-[(2-chloro-4-fluorobenzoyl)amino]phenyl}-N^5-(cyclopropylmethyl)-1H-imidazole-4,5-dicarboxamide], the IC50 is greater than 500 nM.
